Test results from US9872903B2, “Targeting thymidine kinase photosensitizer and pharmaceutical composition and use for cancer treatment thereof” (ZHEJIANG HISUN PHARMACEUTICAL CO., LTD., priority 2012, dated 2018).

Tests used:
PC3 cell line [1] = assay: morphology change by DAPI staining; format: cell-based, human; conditions: paclitaxel pretreatment
[2] = test system: PC-3 (human prostatic cancer) cell line; assay: in vitro light cytotoxicity test of PDT at 675 nm or 703 nm (MTT); format: cell-based
Experimental: The in vitro therapeutic effect of PDT was compared among the following compounds in PC-3 (human prostatic cancer) cell line by in vitro light cytotoxicity test. The procedure was the same as that in Example 4. Briefly, PC3 cells were coated onto the wells of a 96-well plate and adhered for 6-24 h. Subsequently, the cells were treated by the PDT photosensitizer at various concentrations for 24 h, followed by irradiation at 675 nm (dose rate of 3.2 mW/cm^2) or 703 nm (dose rate of 3.2 mW/cm^2) using various high dosages. After 48 h, the cell growth was evaluated by colorimetry, wherein the insoluble formazan product generated in MTT method was dissolved and its concentration was detected at 570 nm through optical density.
The results of the treatment at 675 nm were shown in FIG. 4, wherein PLH-14 was Compound 5 in Example 2, and PLH-13 was Compound 6, i.e., thymidine conjugate of Compound 5, in Example 2. The concentration of both PLH-13 and PLH-14 was 0.1 μM. The results of the treatment at 703 nm were shown in FIG. 5, wherein 277-COOH was Compound 7 in Example 3, and PLH-12 was Compound 8, i.e., thymidine conjugate of Compound 7, in Example 3. The concentration of both 277-COOH and PLH-12 was 0.05 μM. As shown in FIG. 4 and FIG. 5, the in vitro therapeutic effect of PDT using the photosensitizer was enhanced by conjugation of Compound 5, […] Compound 7 with thymidine.

tumor cells of PC3 line = assay: in vivo therapeutic effect of PDT in tumor-bearing Scid mice; conditions: 665 nm; for curative ratio: photosensitizer 0.5 μmol/kg i.v., light 24 h later, 135 J/cm^2, 75 mW/cm^2, 60 days, 10 mice; for mice with no tumor relapse observed after 60 days: photosensitizer 0.5 μmol/kg, 135 J/cm^2, 75 mW/cm^2
Experimental: Procedure: subcutaneous injection of 3×10^5 tumor cells were performed to the mice, and the cells were allowed to grow so that the diameter can reach 4-5 mm. The hairs at the inoculation site were shaved one day before laser irradiation, and the photosensitizer at various concentrations was intravenously injected to the mice. The mice were not anesthetized, and were limited in a plastic circle 24 h after photosensitizer injection (such as Compound 1 or 3). Subsequently, light treatment was performed after the emission wavelength was tuned to the activation wavelength of the drug using an argon-pumped dye laser monochromes, wherein paclitaxel was additionally injected 8 h before exposure in the combination therapy group. The parameters involved in the therapy included a diameter of 1 cm^2, fluence rate of 75 mW/cm^2 and total light dosage of 135 J/cm^2.
If tumor growth was observed, two perpendicular values L and W (perpendicular to L) were used for the detection, and the volume of tumor can be calculated according to the equation V=(L×W^2)/2. If no evidence for regeneration can be observed 60 days after PDT therapy, the mice can be considered as cured. There were 10 mice in each group at each concentration.
The dosages of HPPH and HPPH-thymidine conjugate used in this experiment were both 0.5 μmol/kg. The single dosage of paclitaxel for additional injection 8 h before exposure was 35 mg/kg. The irradiation parameters included 665 nm, 135 J/cm^2, and 75 mW/cm^2. The curative ratio can be simply calculated based on the equation: number of mice without tumor regeneration×100%/total number of mice. For example, 60 days after administration of Compound 3, i.e., HPPH-thymidine conjugate of the present invention, there were 5 mice without tumor regeneration, and there were totally 10 mice in each group. Accordingly, the curative ratio is 5×100%/10, i.e., 50%.

PC3 cell line [3] = assay: in vitro light-induced cytotoxicity test (PDT, MTT assay); format: cell-based, human; conditions: for survival rate: Pharmaceutical 3 0.003 μM
Experimental: In the present invention, the in vitro therapeutic effect of PDT was compared among HPPH, HPPH-thymidine conjugate and HPPH-thymidine conjugate in combination with chemotherapeutic agent paclitaxel in an in vitro light-induced cytotoxicity test.
Procedure: in this Example, a highly metastatic and […] prostatic cancer cell, PC3 cell line, was selected. The PC3 cells were cultured in RPMI 1640 medium supplemented with 10% fetal bovine serum, L-glutamine, penicillin, and streptomycin at 37° C., 5% CO2 and 95% air, and 100% humidity. Subsequently, the PC3 cells were inoculated in the complete medium in a 96-well plate at the density of 5×10^3 cell/well with 6 multiple wells arranged. After cultured at 37° C. overnight, the cells were treated by the photosensitizer or paclitaxel at gradient concentrations in darkness for 24 h. For the treatment using HPPH-thymidine conjugate in combination with paclitaxel, paclitaxel was additionally injected 8 h before exposure, and the concentrations of paclitaxel and the photosensitizer were the same as above.
After the pharmaceutical-containing medium was replaced by fresh medium, the cells were irradiated by light at 665 nm and with a dosage rate of 3.2 mW/cm^2 using an argon-pumped dye laser.
After treated by PDT or paclitaxel alone, the cells were cultured for 48 h at 37° C. in darkness. The phototoxicity was determined by MTT assay (by comparison of the survival rate between the test cells and the untreated cells). The dosage-response survival curve was also plotted. In the Figures, the value was the average of 3 independent experiments, and the error bar stood for standard deviation. In each treatment, the concentration of Compound 3, i.e., HPPH-thymidine conjugate, was 0.06 μM, and the concentration of Compound 1, i.e., HPPH, was 0.06 μM, and the concentration of paclitaxel was 2 nM.

## CC(=O)O[C@H]1C(=O)[C@@]2(C)[C@H]([C@H](OC(=O)c3ccccc3)[C@]3(O)C[C@H](OC(=O)[C@H](O)[C@@H](NC(=O)c4ccccc4)c4ccccc4)C(C)=C1C3(C)C)[C@]1(OC(C)=O)CO[C@@H]1C[C@@H]2O [paclitaxel]
PC3 cell line [1]
  mechanism of cell death: apoptosis mechanism

## CCCCOC(C)c1c(C)c2cc3nc(c4c5[nH]c(cc6nc(cc1[nH]2)C(C)=C6CC)c(C)c5C(=O)N(CCCC)C4=O)C(CCC(=O)OCC1OC(n2cc(C)c(=O)[nH]c2=O)CC1O)C3C (centres unmarked) [Compound 8]
[2]; 703 nm, 3.2 mW/cm^2, 0.05 μM, compared with unconjugated 277-COOH (Compound 7)
  in vitro therapeutic effect of PDT (relative growth rate, FIG. 5): enhanced

## 2-((1′-n-hexyloxy)ethyl)-2-devinyl-pyropheophorbide-α [Compound 1, reference compound]
Tumor cells of PC3 line
  curative ratio: 30%
  mice with no tumor relapse observed after 60 days: 3/10

## CCCCCCOC(C)c1c(C)c2cc3nc(c4c5[nH]c(cc6nc(cc1[nH]2)C(C)=C6CC)c(C)c5C(=O)C4)C(CCC(=O)OCC1OC(n2cc(C)c(=O)[nH]c2=O)CC1O)C3C (centres unmarked) [Compound 3, 17^3-thymidylyl-3-((1′-n-hexyloxy)ethyl)-3-devinyl-pyropheophorbide]
PC3 cell line [3]; PDT with Compound 3 0.06 μM alone, 665 nm, 3.2 mW/cm^2, MTT after 48 h
  light dosage of IC50: 0.13 J/cm^2
PC3 cell line [3]; light dosage 0.25 J/cm^2, before action of paclitaxel
  survival rate: 100%
PC3 cell line [3]; light dosage 0.25 J/cm^2, under the action of paclitaxel (0.000704)
  survival rate: 80%
PC3 cell line [3]; photosensitizer 0.06 μM, paclitaxel 2 nM, 665 nm
  in vitro therapeutic effect of PDT (cell survival vs light dosage, FIG. 3): higher than that using HPPH
Tumor cells of PC3 line
  curative ratio: 50%
  mice with no tumor relapse observed after 60 days: 5/10

## CCCCCCOC(C)c1c(C)c2[nH]c1cc1nc(cc3[nH]c4c(c5nc(c2-c2ccc(C(=O)OCC6OC(n7cc(C)c(=O)[nH]c7=O)CC6O)cc2)C(C)C5CCC(=O)OCC2OC(n5cc(C)c(=O)[nH]c5=O)CC2O)CC(=O)c4c3C)C(CC)=C1C (centres unmarked) [Compound 6, 17^3-thymidylyl-20-(4-thymidylyloxycarbonyl)phenyl-3-((1′-n-hexyloxy)ethyl)-3-devinyl-pyro pheophorbide]
[2]; 675 nm, 3.2 mW/cm^2, 0.1 μM, compared with unconjugated PLH-14 (Compound 5)
  in vitro therapeutic effect of PDT (percentage of control growth, FIG. 4): enhanced
